Measurements published in US20010044151A1, “Ligands for modulating the expression of exogenous genes via an ecdysone receptor complex” (priority 1998, published 2001).

Experiments:
[1] = target: CfEcR(CDEF)-GST and CfUSP-GST fusion proteins; assay: Competitive 3H-ponasterone A binding assay, bacterial GST fusion proteins; parameters: species or system Choristoneura fumiferana; conditions: bacterial CfEcR(CDEF)-GST/CfUSP-GST extracts, 3H-ponasterone A displacement
From the text: Bacterial glutathion-S-transferase (GST) fusion proteins of the spruce budworm (Choristoneura fumiferana) EcR (CfEcR), containing CDEF domains only, and ultraspiracle protein (CfUSP) were also used in radioligand displacement assays. cDNA encoding the CDEF domains of CfEcR were constructed following PCR amplification using primers that contain BamH1 and EcoRI sites (Perera S C, M Sundaram, Krell P J, Retnakaran A, Dhadialla T S, S R Palli, 1999 Arch. Insect Biochem. Physiol. 41 In Press). The PCR produce was digested with BamHI and EcoRI and cloned into pGEX-3X vector obtained from Pharmacia Biotech. CfUSP coding region was amplified using primers that contain BamH1 and EcoRI sites and cloned into to pGEX-2T vector obtained from Pharmacia Biotech. E. coli transformed with each of the two vectors were grown and induced to produce the fusion proteins as detailed in the Pharmacia Biotech GST-technical bulletin.
The concentrations of competitors that inhibited 50% of tritiated ponasterone A binding (IC50) was determined by incubating Kc or Plodia nuclear extracts or extracts of bacteria producing CfEcR(CDEF)-GST and CfUSP-GST fusions proteins with ^3H-ponasterone A (66,000 dpm per reaction) in the presence of a range of concentrations (0.1 nM to 10 μM) of test compounds. In the case of binding reactions using bacterial fusion proteins, 20 or one μl extract of bacteria producing CfEcR(CDEF)-GST or CfUSP-GST fusion proteins, respectively, were included per binding reaction. The assay conditions and determination of total and non-specific binding was as described above. The volume of competitor in solvent, like that for 20E or solvent alone, was kept at 1% of total reaction volume by using a 100 fold concentrated stock solution (i.e. a 100 fold dilution of stock solutions). The remainder of the assay was as described above. Each reaction was carried out in duplicate per concentration per test compound. […]

[2] = system: Spodoptera exigua; assay: Translaminar movement into cotton leaves, mortality of neonate beet armyworm larvae; type: in vivo; conditions: versus CE-1
Method: A study was conducted to evaluate translaminar movement of two compounds into cotton leaves using neonate beet armyworm larvae, Spodoptera exigua, as the model system.
Two treatments were evaluated: emulsifiable concentrates of CE-1 and Ligand 3 (5% and 19%, respectively), at a concentration of 100 μg/ml to simulate spray tank concentrations. These treatments were then compared with plants treated with a chemical standard known to have excellent translaminar movement (emamectin benzoate, 0.16% EC [20 μg/ml], Merck & Co.) and with nontreated plants.
Four-week-old cotton, Gossypium hirsutum L. ev. Stoneville, plants were treated with each treatment by painting the top surface of a single replicate leaf/plant with a corresponding treatment. Plants were held in a controlled environment glasshouse maintained at 27° C. until needed. Residual effectiveness was evaluated by challenging treated and nontreated foliage with neonate beet armyworm larvae, Spodoptera exigua (Hubner), on 3 dates: 1, 7 and 14 days after treatment (DAT). On each sample date, the single treated leaf/plant was excised from each of five replicate plants per treatment. […] Mortality of larvae was recorded 4 days after infestation. […]
Percentage mortality data were transformed to the arcsine of the square-root and then analyzed by ANOVA using JMP (Ver. 3.2.1). […]

COc1cccc(C(=O)NN(C(=O)c2cc(C)cc(C)c2)C(C)(C)C)c1C [Ligand 3]
Bacterial CfECR log(1/IC50) [1]: 8.76
Effectiveness at killing S. exigua larvae from translaminar movement (comparison in words) [2]: significantly more effective than CE-1
